This note sets out measurements from PMC3024462 (Journal of medicinal chemistry, 2010).

One assay relates to HIV-1MDR/B (X4). Type of assay: cell-based. The following applies: number in parentheses.
In a further assay the test system is HIV-1MDR/C (X4). It counts as cell-based. The following applies: number in parentheses.
A further assay has as its system HIV-1MDR/G (X4). It counts as cell-based. The following applies: number in parentheses.
The subject of another assay is HIV-1MDR/TM (X4). Type of assay: cell-based. The following applies: number in parentheses.
For another assay, the system named is HIV-1MDR/MM (R5). It counts as cell-based. The following applies: number in parentheses.
The subject of the next assay is HIV-1MDR/JSL (R5). It counts as cell-based. The following applies: number in parentheses.
The target of a further assay is HIV-1 protease (Human immunodeficiency virus type 1 group M subtype B, UniProt P04585). Kind of assay: HIV-1 protease enzyme inhibitory assay. Type of assay: biochemical. The following applies: compared to inhibitor 35a.
The next assay relates to HIV-1LAI. Kind of assay: Antiviral activity in MT-2 human T-lymphoid cells exposed to HIV-1LAI, MTT assay. Type of assay: cell-based. Background: Tetrazolium dyes change colour on reduction, which living cells bring about.

Consider `COC(=O)N[C@H](C(=O)N[C@@H](Cc1ccccc1)[C@@H](O)CN(Cc1ccc(-c2ccccn2)cc1)NC(=O)[C@@H](NC(=O)OC)C(C)(C)C)C(C)(C)C` [ATV, atazanavir], for which the “fold change of EC50 compared to wild-type HIV-1ERS104pre” value in the assay with HIV-1MDR/B (X4) came out at 174; with HIV-1MDR/C (X4), 14; in the assay with HIV-1MDR/G (X4), 7; with HIV-1MDR/TM (X4), 28; in the assay with HIV-1MDR/MM (R5), 76; in the assay with HIV-1MDR/JSL (R5), 109.
Turning to `COc1ccc(S(=O)(=O)N(CC(C)C)C[C@@H](O)[C@H](Cc2ccccc2)NC(=O)O[C@@H]2CCO[C@@H]3OCC[C@@H]32)cc1` [Inhibitor 35b, (3aR,4R,7aS)-Hexahydro-2H-furo[2,3-b]pyran-4-yl ((2S,3R)-3-hydroxy-4-(N-isobutyl-4-methoxyphenylsulfonamido)-1-phenylbutan-2-yl)carbamate], the “fold change in Ki (loss of enzyme inhibitory potency)” value on HIV-1 protease is reported as greater than 20 fold. In the assay with HIV-1LAI (MT-2 cells exposed to HIV-1LAI), the “ID50 (antiviral activity)” value came to 19 nM.
Take `COc1ccc(S(=O)(=O)N(CC(C)C)C[C@@H](O)[C@H](Cc2ccccc2)NC(=O)O[C@H]2CCC[C@H]3OCC[C@@H]23)cc1` [Inhibitor 35c, (3aR,4S,7aR)-Octahydrobenzofuran-4-yl (2S,3R)-3-hydroxy-4-(N-isobutyl-4-methoxyphenylsulfonamido)-1-phenylbutan-2-yl carbamate]: the “fold change in Ki (loss of enzyme inhibitory potency)” value at HIV-1 protease is on record as 2 fold. Also, the “fold decrease in antiviral activity” value in the assay with HIV-1LAI (compared to inhibitor 35a) turned out to be 16 fold.
Turning to `COc1ccc(S(=O)(=O)N(CC(C)C)C[C@@H](O)[C@H](Cc2ccccc2)NC(=O)O[C@H]2CCO[C@H]3COC[C@H]32)cc1` [Inhibitor 35f, (4S,4aS,7aR)-Hexahydro-2H-furo[3,4-b]pyran-4-yl ((2S,3R)-3-hydroxy-4-(N-isobutyl-4-methoxyphenylsulfonamido)-1-phenylbutan-2-yl)carbamate], in the assay on HIV-1LAI (MT-2 cells exposed to HIV-1LAI), the “antiviral activity (in words)” value is recorded as “no antiviral activity”.
